Target: T1, Ba/F3 Axl cells (Homo sapiens, UniProt P30530)
T1 sequence (P30530 1-894): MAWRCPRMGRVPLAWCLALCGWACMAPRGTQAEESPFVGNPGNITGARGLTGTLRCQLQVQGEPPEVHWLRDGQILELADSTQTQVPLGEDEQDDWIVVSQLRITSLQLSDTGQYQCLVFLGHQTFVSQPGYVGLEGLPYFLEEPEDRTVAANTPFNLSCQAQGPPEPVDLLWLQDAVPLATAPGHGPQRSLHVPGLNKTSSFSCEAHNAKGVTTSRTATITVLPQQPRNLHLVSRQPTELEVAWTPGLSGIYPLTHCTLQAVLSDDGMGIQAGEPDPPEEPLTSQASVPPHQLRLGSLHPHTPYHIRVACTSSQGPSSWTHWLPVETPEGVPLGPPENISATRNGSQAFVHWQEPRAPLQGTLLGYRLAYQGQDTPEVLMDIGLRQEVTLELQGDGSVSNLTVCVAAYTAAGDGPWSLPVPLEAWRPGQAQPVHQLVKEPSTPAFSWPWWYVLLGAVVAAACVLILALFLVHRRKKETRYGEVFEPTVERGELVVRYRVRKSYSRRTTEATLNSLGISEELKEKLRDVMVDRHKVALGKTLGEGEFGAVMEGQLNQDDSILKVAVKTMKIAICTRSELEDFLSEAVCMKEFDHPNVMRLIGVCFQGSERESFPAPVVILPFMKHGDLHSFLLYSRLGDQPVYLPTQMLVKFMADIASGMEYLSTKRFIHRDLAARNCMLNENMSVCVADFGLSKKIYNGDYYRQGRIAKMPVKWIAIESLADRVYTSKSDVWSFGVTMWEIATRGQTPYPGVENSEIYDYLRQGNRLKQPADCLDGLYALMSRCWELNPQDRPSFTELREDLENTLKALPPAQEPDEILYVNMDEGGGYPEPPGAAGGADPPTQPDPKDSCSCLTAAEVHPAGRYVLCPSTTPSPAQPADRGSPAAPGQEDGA
Test: Ba/F3 Axl cell proliferation, CellTiter-Glo Luminescent Cell Viability Assay
Format: cell-based
Conditions: read-out: IC50 (nM) against Ba/F3 Axl cells, 100 ng/mL rhGas6, 72 h incubation
Method: Test method: the inhibitory activity of the compounds against Ba/F3 Axl cell proliferation was evaluated using CellTiter-Glo® Luminescent Cell Viability Assay Kit (Promega).
Test procedures: when thawing Ba/F3 Axl cells, the cell cryopreservation tube was shaken rapidly in a water bath at 37° C. to thaw the cells in 1 min. The cell suspension after thawing was mixed with RPMI1640 culture medium containing 10% FBS and centrifuged for 5 min at 1000 rpm, and the supernatant was discarded. The cell pellet was suspended in 5 mL of complete culture medium. […] Cell passage was performed at a cell density of 2×10^6 viable cells/mL. When the cells were passaged, the original cell suspension was directly made uniform by pipetting. 1/10 (namely 0.5 mL) of the cell suspension was kept, added with 4.5 mL of new complete culture medium and then made uniform by pipetting. The cell culture flask was then placed in a cell incubator for further culturing. Cell plating was performed when the cell confluence reached 2×10^6 viable cells/mL again. With reference to the method for cell passage, 1/10 (namely 0.5 mL) of the cell suspension was kept for further culturing when the cells were plated, and the remaining cell suspension was placed in a 15 mL centrifuge tube. The supernatant was discarded after centrifugation, and 5 mL of complete culture medium was used to resuspend the cells. […] A control group that contains no cell or compound but only complete culture medium and a control group that contains no compound but cells were set. The cell plates were incubated overnight in a cell incubator. […] The cell plates were then incubated in the cell incubator for 72 h. […] The cell plate was left to stand at room temperature for 20 min to stabilize luminescence signals, and the luminescence value of each well was scanned by a Spectramax M3 multi-functional microplate reader (Molecular Devices) at full wavelength.
Test samples: example compounds of the present invention and bemcentinib (positive control compound).
Data analysis: cell viability was calculated for compounds at various concentrations using the following formula:
Cell viability(%)=(Lumtest compound−Lumculture solution control)/(Lumcell control−Lumculture solution control)×100%,
where Lum refers to the luminescence value of each well of the test compound plate read by the multi-functional microplate reader.
The data were analyzed using GraphPad Prism 7.0 software, fitted with nonlinear S-curve regression to give dose-response curves, and IC50 values were calculated therefrom.

## Nc1nc(Nc2ccc3c(c2)CC[C@@H](N2CCCC2)CC3)nn1-c1cc2c(nn1)-c1ccccc1CCC2 [Bemcentinib, bemcentinib, reference compound]
  GI50: 26.9 nM
